The test system of data set [1] is histamine-induced lethality. Nature of the data set: Antihistamine activity: prevention of histamine-induced lethality in guinea pigs. The format is in vivo. The note with it: Cavia porcellus, guinea pig; for responders at 5 mg/kg: oral dose 5 mg/kg PO. Here is the method: C. ANTIHISTAMINE ACTIVITY ASSAY
Prevention of Histamine-Induced Lethality in Guinea Pigs. Some of compounds shown below in Table I also were evaluated for antihistamine activity by their ability to protect female albino guinea pigs (250-350 g) against death induced by the intravenous injection of histamine dihydrochloride at 1.1 mg/kg, which is approximately twice the LD99. Doses of the antagonists were administered orally to separate groups of fasted animals 1 hour prior to the challenge with histamine and protection from death recorded for 30 minutes after histamine. ED50 values were determined for each drug by probit analysis.

Data set [2] concerns PAF-induced platelet aggregation (platelet-rich plasma). Nature of the data set: PAF antagonism, in vitro platelet aggregation assay. The format is cell-based. To be noted: dose giving 50 % PAF antagonism, human PRP, PAF 1-5×10^-8 M. Here is the method: Blood was centrifuged at 110×g for 15 min. and the supernatant PRP carefully transferred into a polypropylene tube. Platelet-poor-plasma (PPP) was prepared by centrifuging PRP at 12,000×g for 2 min. in a Beckman Microfuge B. PRP was used within 3 hours of drawing the blood.
Platelet Aggregation Assay: When an aggregating agent such as PAF is added to PRP, platelets aggregate. An aggregometer quantifies this aggregation by measuring light (infra-red) transmission through PRP and comparing to PPP. The aggregation assays were performed using a dual-channel aggregometer (Model 440, Chrono-Log Corp., Hayertown, Pa.). PRP (0.45 ml) in aggregometer curettes was continually stirred (37° C.). Solutions of test compounds or vehicle were added to the PRP, and after incubation for 2 min., 10-15 μl aliquots of PAF solution were added so as to achieve a final concentration of 1-5×10^-8 M. Incubations were continued until the increase in light transmission reached a maximum (usually about 2 min). Values for inhibition were calculated by comparing maximal aggregation obtained in the absence and the presence of the compound. For each experiment, a standard PAF antagonist, such as alprazolam, was used as a positive internal control. […] The test results are shown below in Tables Ia, Ib and Ic.

Data set [3] can be described thus: CNS activity: antagonism of acetic acid writhing. The note with it: mouse, in vivo; mice, oral, 15 minutes before acetic acid i.p. Here is the method:
E. Antagonism of Acetic Acid Writhing. The acetic acid writhing test is a second test useful for determining CNS activity, and is essentially that described by HENDERSHOT and FORSAITH, J. Pharmac. […] Mice were injected with 0.6% aqueous acetic acid at 10 mg/kg i.p. 15 minutes after oral administration of the test drug. The number of writhes for each animal was counted during a 10 minute period starting 3 minutes after acetic acid treatment. A writhe was defined as a sequence of arching of the back, pelvic rotation and hind limb extension.
For orientation: Writhing tests count abdominal constrictions after an irritant is injected.

Data set [4] is described as follows: CNS activity: antagonism of electro-convulsive shock (ECS). To be noted: mouse, in vivo; mice, oral, one hour before ECS; read-out: ECS test ED50. Here is the method:
F. Antagonism of Electro-Convulsive Shock (ECS). The ECS test is a third test useful for determining CNS activity. […] One hour after oral administration of the test drug or vehicle, mice were administered a 13 mA, 60 cycle a.c. electroconvulsant shock (ECS) for 0.2 seconds via corneal electrodes.

Data set [5] concerns PAF-induced bronchospasm. Nature of the data set: PAF-induced bronchospasm in guinea pigs. In kind it is in vivo. To be noted: guinea pig. Here is the method: PAF is also a known bronchoconstrictive agent in mammals.
B. PAF-INDUCED BRONCHOSPASM IN GUINEA PIGS
Non-sensitized guinea Digs were fasted overnight, and the following morning were anesthetized with 0.9 ml/kg i.p. of dialurethane (0.1 g/ml of diallybarbituric acid, 0.4 g/ml of ethylurea and 0.4 g/ml of urethane). The trachea was cannulated and the animals were ventilated by a Harvard rodent respirator at 55 strokes/min. with a stroke volume of 4 ml. A side arm to the tracheal cannula was connected to a Harvard pressure transducer to obtain a continuous measure of intratracheal pressure, which was recorded on a Harvard Polygraph. The jugular vein was cannulated for the administration of compounds. The animals were challenged i.v. with PAF (0.4 ug/kg in isotonic saline containing 0.25% BSA) and the peak increase in inflation pressure that occurred within 5 min. after challenge was recorded. Test compounds were administered either orally (2 hrs. prior to PAF as a suspension in 0.4% methylcellulose vehicle) or intravenously (10 min. prior to PAF as a solution in dimethylsulfoxide).

Data set [6] can be described thus: CNS activity: antagonism of physostigmine lethality. The note with it: mouse, in vivo; mice, oral, 30 minutes prior to physostigmine 1.0 mg/kg s.c.
Method: D. Antagonism of Physostigmine Lethality. The physostigmine-induced lethality test is indicative of CNS activity and the test described is a modification of the technique reported by COLLIER et al., Br. J. Pharmac., 32, 295-310 (1968). physostigmine salicylate (1.0 mg/kg s.c.) produces 100% lethality when administered to mice grouped 10 per plastic cage (11×26×13 cm). Test agents were administered orally 30 minutes prior to physostigmine. The number of survivors were counted 20 minutes after physostigmine administration.
[7] abbreviates: 0.5 h, 1 hour before histamine 1.1 mg/kg i.v., read-out: Antihistaminic Activity, % Survival.

As usually defined, the IC50 is the concentration at which inhibition is half-maximal. Low readings indicate higher potency, high ones lower potency. For orientation: ED50 means the midpoint of the dose-response relation.

For `CC(=O)N1CCC(=C2c3ccc(Cl)cc3CCc3cccnc32)CC1` [Z = O, R = CH3, R^3 = Cl, R^4 = H, 8-chloro-11-(1-acetyl-4-piperidylidene)-6,11-dihydro-5H-benzo[5,6]cyclohepta[1,2-b]pyridine], the responders at 1 mg/kg in data set [1] (0.5 h, oral dose 1 mg/kg PO, 1 hour before histamine 1.1 mg/kg i.v., read-out: Antihistaminic Activity, % Survival) was found to be 60%. Besides, in data set [1] (setting [7]), the responders at 5 mg/kg stood at 100%. The molecule further had an IC50 in data set [2] of 700 nM. The ED50 in data set [3] is more than 160 mg/kg; in data set [4], more than 320 mg/kg. In addition, the “inhibition of PAF-induced bronchospasm” value in data set [5] (1 mg/kg intravenously) turned out to be 75%.
On to `CN1CCC(=C2c3ccccc3CCc3cccnc32)CC1` [R^3 = H, R^4 = H, A = H, CZR = CH3, reference compound], for which the ED50 is 6.1 mg/kg in data set [6]; 0.009 mg/kg in data set [1] (oral, probit analysis, read-out: Antihistaminic Activity, ED50); 8.9 mg/kg in data set [3]; more than 80 mg/kg in data set [4]. Moreover, in data set [2], the concentration for half-maximal inhibition (IC50) is more than 100000 nM.
As to `CC(=O)N1CCC(=C2c3ccc(F)cc3CCc3cccnc32)CC1` [R = CH3, Z = O, R^3 = F, R^4 = H, 8-fluoro-11-(1-acetyl-4-piperidylidene)-6,11-dihydro-5H-benzo[5,6]cyclohepta[1,2-b]pyridine], the responders at 5 mg/kg in data set [1] (setting [7]) was 20%. The molecule also showed an IC50 in data set [2] of 700 nM. For the same molecule, in data set [5] (3 mg/kg (iv)), the “inhibition of PAF-induced bronchospasm” value stood at 99%.
In the same order, the values of `CC(=O)N1CCC(=C2c3cc(F)ccc3CCc3cccnc32)CC1` [R = CH3, Z = O, R^3 = H, R^4 = F, 9-fluoro-11-(1-acetyl-4-piperidylidene)-6,11-dihydro-5H-benzo[5,6]cyclohepta[1,2-b]pyridine] are 0%, 900 nM and 97%.

For the origin of these results see US5438062A, “Benzo(5,6)cycloheptapyridines, compositions and methods of use” (Schering Corporation, priority 1987, dated 1995).
